Paper PMC7177849, “Gut Microbial Catabolites of Tryptophan Are Ligands and Agonists of the Aryl Hydrocarbon Receptor: A Detailed Characterization” (International Journal of Molecular Sciences, 2020)
Where “and” joins values, the source holds several entries; their conditions need not be identical. Equal entries are not always repeated. Where two headings read alike, the source gives them in different places.

Key:
[1] = molecular target: T1, AhR (Homo sapiens, UniProt P35869); test: Reporter gene assay in AZ-AHR cells, agonist analyses (luciferase)
T1 sequence (P35869 11-848): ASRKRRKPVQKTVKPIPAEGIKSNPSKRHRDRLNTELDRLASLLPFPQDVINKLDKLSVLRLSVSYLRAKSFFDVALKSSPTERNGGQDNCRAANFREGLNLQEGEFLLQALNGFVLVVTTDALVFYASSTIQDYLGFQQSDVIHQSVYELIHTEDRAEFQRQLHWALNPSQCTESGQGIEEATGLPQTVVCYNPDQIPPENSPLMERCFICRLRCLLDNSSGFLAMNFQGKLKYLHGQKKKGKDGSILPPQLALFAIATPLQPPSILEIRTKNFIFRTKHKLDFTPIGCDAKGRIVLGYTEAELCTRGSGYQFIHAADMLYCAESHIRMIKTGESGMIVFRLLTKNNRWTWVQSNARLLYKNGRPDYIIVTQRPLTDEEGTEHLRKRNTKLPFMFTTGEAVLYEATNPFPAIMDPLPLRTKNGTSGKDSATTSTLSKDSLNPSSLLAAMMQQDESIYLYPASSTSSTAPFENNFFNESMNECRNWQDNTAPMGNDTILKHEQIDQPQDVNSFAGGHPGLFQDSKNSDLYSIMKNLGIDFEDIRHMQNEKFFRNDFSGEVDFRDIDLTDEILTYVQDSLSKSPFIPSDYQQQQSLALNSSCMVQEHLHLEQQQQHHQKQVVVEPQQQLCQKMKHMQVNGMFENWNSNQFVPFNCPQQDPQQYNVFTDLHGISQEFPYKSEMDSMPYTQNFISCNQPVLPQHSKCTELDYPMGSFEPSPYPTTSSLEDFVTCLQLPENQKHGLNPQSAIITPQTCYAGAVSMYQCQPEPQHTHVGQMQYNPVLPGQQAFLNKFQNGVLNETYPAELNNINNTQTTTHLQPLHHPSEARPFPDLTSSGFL
Protocol: In the first series of experiments, we evaluated the agonistic and antagonistic effects of MICT on the AhR activation. […] The antagonistic effects of MICT were evaluated against typical full agonists of the AhR, comprising TCDD, BaP, and FICZ, which were applied at fixed concentrations corresponding to their EC80.
Following the treatments, we lysed cells, and luciferase activity was measured. Experiments were performed at least in four consecutive cell passages. Incubations were performed in quadruplicates (technical replicates). In agonist analyses, the data from a representative experiment, expressed as a fold induction of luciferase activity over control cells, are shown. In antagonist analyses, the data are a percentage of maximal induction, and they are the mean ± SD.
Then, cells were lysed, and luciferase activity was measured using the Tecan Infinite M200 plate luminometer (Schoeller Instruments, Czech Republic). The experiments were performed in at least four consecutive cell passages, and the treatments were in quadruplicates (technical replicates). The values of half-maximal effective concentration (EC50) for each MICT, and half-maximal inhibitory concentration (IC50—where appropriate) were calculated.
Supplementary Figure 2. Tryptophan effects in culture medium on AhR activity. (A) Time-course of Trp
levels in culture media from hepatic (AZ-AHR), instestinal (LS174T) and skin (HaCaT) cells. Determined by
HPLC. (B) Induction of AhR-dependent luciferase activity in AZ-AHR cells incubated for 24 h with TCDD,
Indole and Trp in Trp/serum-free culture medium. (C) Induction of AhR-dependent luciferase activity in
AZ-AHR cells incubated for 24 h with TCDD and Indole in standard (+Trp/+FBS), serum-free (+Trp/-FBS),
Trp-free (-Trp/+FBS) and Trp/serum-free (-Trp/-FBS) culture medium. […]

[2] = tested on: CYP1A1 mRNA; test: CYP1A1 mRNA (qRT-PCR) in primary human hepatocytes; format: cell-based; details: three donors, 24 h
Protocol: Figure 4 Effects of MICT on the induction of CYP1A1 mRNA in human hepatic and intestinal cells. Cultured cells were incubated for 24 h with the vehicle (DMSO; 0.1% v/v) and tested MICT in the presence or absence of TCDD (10 nM). RT-PCR determined the level of CYP1A1 mRNA, and the data were normalized per GAPDH mRNA level. […] (A,B) Experiments in three consecutive passages of human colon adenocarcinoma cell line LS180 in the absence (A) and the presence (B) of 10 nM TCDD. The bar graphs show the percentage of maximal induction attained by TCDD and are expressed as the mean ± SD. (C) Experiments in three consecutive passages of wild-type (AhR^+/^+) and AhR-knockout (AhR^−/^−) HT-29 cells. […] (D) Primary human hepatocytes from three different donors (LH79, Hep2201020, and Hep2201021).
Primary human hepatocyte cultures were from two sources: (i) long-term human hepatocytes in monolayer batch Hep2201020 (person) and Hep2201021 (person) were purchased from Biopredic International (Rennes, France); (ii) primary human hepatocytes from multiorgan donor LH79 were prepared at Palacky University Olomouc. Liver tissue was obtained from Faculty Hospital Olomouc, and the tissue acquisition protocol followed the requirements issued by the “Ethical Committee of the Faculty Hospital Olomouc, Czech Republic” and Transplantation law #285/2002 Coll.
Total RNA was isolated using TRI Reagent® (Sigma Aldrich, Prague, Czech Republic). cDNA was synthesized using M-MuLV reverse transcriptase (New England Biolabs, Ipswich, MA, USA). The reverse transcription was performed at 42 °C for 60 min using Random Primers 6 (New England Biolabs, Ipswich, MA, USA) and diluted in a 1:4 ratio by PCR-grade water. The quantitative reverse transcriptase-polymerase chain reaction (qRT-PCR) was performed on the Lightcycler 480 II using the LightCycler ® 480 Probes Master (Roche Diagnostic Corporation, Prague, Czech Republic). The levels of CYP1A1 and GAPDH mRNAs were determined using the Universal Probe Library probes (UPL; Roche Diagnostic Corporation, Prague, Czech Republic) in combination with specific primers, using a protocol described elsewhere. All measurements were performed in triplicates, and the gene expression was normalized to glyceraldehyde-3-phosphate dehydrogenase (GAPDH) as a house-keeping gene. The data were processed using the delta-delta Ct method and expressed as a fold induction over the negative control (DMSO) or as a percentage of the positive control (maximal induction by TCDD).

[3] = EC50, AZ-AHR cells, 24 h, agonist analyses
[4] = read-out: fold induction of luciferase activity (efficacy)

SMILES	EC50 [1, 3]	Efficacy (EMAX) ([1]; Table 1 summary class)	Potency (EC50) ([1]; Table 1 summary class)	induction of CYP1A1 mRNA [2]	other results
Cc1c[nH]c2ccccc12 [3MI, skatole]	103 ± 1.78 µM	medium	low	induced	–
NCCc1c[nH]c2ccccc12 [TA, tryptamine]	83.1 ± 12.7 µM	medium	low	lack of induction	–
c1ccc2[nH]ccc2c1 [IND, indole]	–	–	–	induced	Efficacy (EMAX) [1]: high; Potency (EC50) [1]: very low; induced luciferase activity [1]: 500 fold; EC50 ([1]; EC50): ~1500 µM and 1480 µM; fold induction at 10000 µM [1, 4]: 200 to 600
O=C(O)/C=C/c1c[nH]c2ccccc12 [IAC, indole-3-acrylate]	42.3 ± 3.32 µM	medium	low	induced	fold induction at 100 µM [1, 4]: 40 to 100
NC(=O)Cc1c[nH]c2ccccc12 [IAD, indole-3-acetamide]	99.9 ± 2.86 µM	high	low	induced	–
O=C(O)C(O)Cc1c[nH]c2ccccc12 (stereo not shown) [ILA, indole-3-lactate]	82 ± 17.1 µM	low	–	–	Potency (EC50) [1]: low
O=Cc1c[nH]c2ccccc12 [IA, indole-3-aldehyde]	62.2 µM and 62 µM	low	low	–	–
O=C(O)C(=O)Cc1c[nH]c2ccccc12 [IPY, indole-3-pyruvate]	98.5 ± 10.1 µM	high	low	induced	–
OCCc1c[nH]c2ccccc12 [IET, indole-3-ethanol]	98 ± 6.41 µM	medium	low	–	–
Clc1cc2c(cc1Cl)Oc1cc(Cl)c(Cl)cc1O2 [TCDD, 2,3,7,8-tetrachlorodibenzo-p-dioxin, reference compound]	–	–	–	–	induced luciferase activity ([1]; AZ-AHR cells, 24 h, Trp-free/serum-free medium): 10000 fold
